The results in this text go back to US7872004B2, “6-(heterocyclyl-substituted benzyl)-4-oxoquinoline compound and use thereof as HIV integrase inhibitor” (Japan Tobacco Inc., priority 2006, dated 2011).

The structures appear in SMILES notation.

The assay has as its target T1, HIV integrase (Human immunodeficiency virus type 1 group M subtype B, UniProt P12497, F1332H).
T1 construct: HIV integrase full length gene; made in house; host or cells: Escherichia coli BL21(DE3)
The assay is described as follows: Determination of enzyme (HIV integrase) inhibitory activity. Type of assay: biochemical, HIV (Human Immunodeficiency Virus (type 1)). Particulars: recombinant integrase protein (F185H), strand transfer plate assay, absorbance at 450 nm. The source says:
The following explains evaluation methods of the HIV integrase inhibitory activity of the compound of the present invention.
(i) Construction of Recombinant Integrase Gene Expression System
HIV integrase full length gene (J. Virol., 67, 425-437 (1993)) in which phenylalanine at codon 185 was substituted by histidine, was inserted between the restriction enzyme NdeI and XhoI sites of plasmid pET21a(+) (Novagen), whereby an integrase expression vector pET21a-IN-F185H was constructed.
(ii) Production and Purification of Integrase Protein
Escherichia coli recombinant BL21(DE3) transformed with plasmid pET21a-IN-F185H obtained in (i) was shake cultured at 30° C. in a liquid medium containing ampicillin. When the culture reached the logarithmic growth phase, isopropyl-β-D-thiogalactopyranoside was added to promote expression of integrase gene. The culture was continued for 3 hr to promote accumulation of the integrase protein. The recombinant E. coli was collected in pellets by centrifugal separation and preserved at −80° C.
The E. coli was suspended in Lysis buffer ([…] HEPES (pH 7.5), 5 mM DTT, 10 mM CHAPS, 10% glycerol) containing 1M sodium chloride and subjected to repeat pressurization and depressurization for rupture, and centrifugal separation at 4° C., 40,000×g, 60 min to recover a water-soluble fraction (supernatant). This was diluted 10-fold with Lysis buffer free of sodium chloride, mixed with SP-Sepharose (GE healthcare Bioscience) and stirred at 4° C. for 60 min to allow adsorption of integrase protein to the resin. The resin was washed with Lysis buffer containing 100 mM sodium chloride and the integrase protein was eluted with Lysis buffer containing 1M sodium chloride.
The eluted integrase protein solution was subjected to a Superdex 75 (GE healthcare Bioscience) column for gel filtration. The protein was eluted with Lysis buffer containing 1M sodium chloride.
The obtained fractions of the integrase protein were collected and preserved at −80° C.
(iii) Preparation of DNA Solution
The following DNA synthesized by Greiner or FASMAC was dissolved in TE buffer (10 mM Tris-hydrochloric acid (pH 8.0), 1 mM EDTA) and mixed with donor DNA, target DNA, and each complementary strand (+ and − strands) to 1 μM. The mixture was heated at 95° C. for 5 min, 80° C. for 10 min, 70° C. for 10 min, 60° C. for 10 min, 50° C. for 10 min and 40° C. for 10 min and kept at 25° C. to give a double stranded DNA, which was used for the test.
(iv) Determination of Enzyme (HIV Integrase) Inhibitory Activity
The donor DNA was diluted with TE buffer to 10 nM (or 5 nM), of which 50 μl was added to each well of streptavidin-coated microtiter plate (Roche) and allowed to adsorb at 37° C. for 60 min. The plate was washed with phosphate buffer (Dulbecco's PBS, Sanko Junyaku Co., Ltd.) containing 0.1% Tween 20 and phosphate buffer. Then, an enzyme reaction mixture (70 μl), a test substance (10 μl) diluted with the enzyme reaction mixture and 100 μg/ml (or 64 μg/ml (2 μM)) integrase protein (10 μl) were added to each well and reacted at 37° C. for 60 min.
Composition of the enzyme reaction mixture: 30 mM MOPS (3-morpholinopropanesulfonic acid), 5 mM magnesium chloride, 3 mM DTT (dithiothreitol), 0.1 mg/ml BSA (bovine serum albumin), 5% glycerol, 10% DMSO (dimethyl sulfoxide), 0.01% Tween 20.
Then, 50 nM (or 25 nM) target DNA (10 μl) was added, reacted at 37° C. for 10 min and washed with phosphate buffer containing 0.1% Tween 20 to stop the reaction.
Then, 100 mU/ml peroxidase labeled anti-digoxigenin antibody solution (Roche, 100 μl) was added, and the mixture was reacted at 37° C. for 60 min, followed by washing with phosphate buffer containing 0.1% Tween 20.
A peroxidase color solution (Bio Rad, 100 μl) was added and allowed to react at room temperature for 4 min (or 3 min). The color reaction was stopped by adding IN sulfuric acid (100 μl). The absorbance at 450 nm was measured. […]
As a reminder, the IC50 is the concentration that gives 50% inhibition. Take `CCOC[C@@H](CO)n1cc(C(=O)O)c(=O)c2cc(Cc3cc(N4CCCC4=O)cc(Cl)c3F)c(OC)cc21` [Example 39, 6-[3-chloro-2-fluoro-5-(2-oxopyrrolidin-1-yl)benzyl]-1-((R)-1-ethoxymethyl-2-hydroxyethyl)-7-methoxy-4-oxo-1,4-dihydroquinoline-3-carboxylic acid]: the IC50 was less than 10 nM.

On to `COCC[C@@H](CO)n1cc(C(=O)O)c(=O)c2cc(Cc3cc(N4CCCC4=O)cc(Cl)c3F)c(OC)cc21` [Example 47, 6-[3-chloro-2-fluoro-5-(2-oxopyrrolidin-1-yl)benzyl]-1-((S)-1-hydroxymethyl-3-methoxypropyl)-7-methoxy-4-oxo-1,4-dihydroquinoline-3-carboxylic acid], for which the IC50 fell in the range of 10 to 100 nM.

For `CC(C)(C)[C@H](CO)n1cc(C(=O)O)c(=O)c2cc(Cc3cc(N4CCOCC4)c(F)c(Cl)c3F)ccc21` [Example 59, 6-[3-chloro-2,4-difluoro-5-(morpholin-4-yl)benzyl]-1-((R)-1-hydroxymethyl-2,2-dimethylpropyl)-4-oxo-1,4-dihydroquinoline-3-carboxylic acid], the IC50 lay within 10 to 100 nM.

`COc1cc2c(cc1Cc1cc(N3CCCCC3=O)cc(Cl)c1F)c(=O)c(C(=O)O)cn2[C@H](CO)C(C)C` [Example 7, 6-[3-chloro-2-fluoro-5-(2-oxopiperidin-1-yl)benzyl]-1-((S)-1-hydroxymethyl-2-methylpropyl)-7-methoxy-4-oxo-1,4-dihydroquinoline-3-carboxylic acid]: the IC50 is less than 10 nM.

For the molecule `CC(C)(C)[C@@H](CO)n1cc(C(=O)O)c(=O)c2cc(Cc3cc(N4CCCC4=O)c(F)c(Cl)c3F)ccc21` [Example 54, 6-[3-chloro-2,4-difluoro-5-(2-oxopyrrolidin-1-yl)benzyl]-1-((S)-1-hydroxymethyl-2,2-dimethylpropyl)-4-oxo-1,4-dihydroquinoline-3-carboxylic acid], the IC50 was less than 10 nM.

Turning to `COc1cc2c(cc1Cc1cc(N3CCCC3=O)c(F)c(Cl)c1F)c(=O)c(C(=O)O)cn2[C@H](CO)C(C)(C)C` [Example 46, 6-[3-chloro-2,4-difluoro-5-(2-oxopyrrolidin-1-yl)benzyl]-1-((S)-1-hydroxymethyl-2,2-dimethylpropyl)-7-methoxy-4-oxo-1,4-dihydroquinoline-3-carboxylic acid], the IC50 is less than 10 nM.

Take `CCc1cc2c(cc1Cc1cc(N3CCCC3=O)cc(Cl)c1F)c(=O)c(C(=O)O)cn2[C@H](CO)C(C)(C)C` [Example 52, 6-[3-chloro-2-fluoro-5-(2-oxopyrrolidin-1-yl)benzyl]-7-ethyl-1-((S)-1-hydroxymethyl-2,2-dimethylpropyl)-4-oxo-1,4-dihydroquinoline-3-carboxylic acid]: the IC50 is 10 to 100 nM.

Turning to `COc1cc2c(cc1Cc1cc(N3CCN(C(C)=O)CC3)cc(Cl)c1F)c(=O)c(C(=O)O)cn2[C@H](CO)C(C)C` [Example 11, 6-[5-(4-acetylpiperazin-1-yl)-3-chloro-2-fluorobenzyl]-1-((S)-1-hydroxymethyl-2-methylpropyl)-7-methoxy-4-oxo-1,4-dihydroquinoline-3-carboxylic acid], the IC50 is less than 10 nM.

For `CCc1cc2c(cc1Cc1cc(N3CCOCC3)cc(Cl)c1F)c(=O)c(C(=O)O)cn2[C@H](CO)C(C)(C)OC` [Example 43, 6-[3-chloro-2-fluoro-5-(morpholin-4-yl)benzyl]-7-ethyl-1-((R)-1-hydroxymethyl-2-methoxy-2-methylpropyl)-4-oxo-1,4-dihydroquinoline-3-carboxylic acid], the IC50 is less than 10 nM.

As to `CCO[C@H](C)[C@@H](CO)n1cc(C(=O)O)c(=O)c2cc(Cc3cc(N4CCOCC4)cc(Cl)c3F)c(CC)cc21` [Example 38, 6-[3-chloro-2-fluoro-5-(morpholin-4-yl)benzyl]-1-[(1R,2R)-2-ethoxy-1-(hydroxymethyl)propyl]-7-ethyl-4-oxo-1,4-dihydroquinoline-3-carboxylic acid], the IC50 was less than 10 nM.
